{"source": "patent US9695155B2", "about": "“Herbicidal substituted pyrimidinyloxy benzene compounds” (E. I. DU PONT DE NEMOURS AND COMPANY, priority 2013, dated 2017)", "key": {"[1]": {"test_system": "barnyardgrass", "assay": "Test A preemergence", "type": "in vivo, Echinochloa crus-galli", "how_it_was_run": "(§1)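 Visual 0–100 rating (100 = complete control) taken about 10 d post-treatment relative to untreated checks. Preemergence: directed soil spray on sown loam/sand pots. Postemergence: seedlings 2–10 cm, 1–2 leaf. Non-phytotoxic solvent formulation with surfactant.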"}, "[2]": {"test_system": "pigweed", "assay": "Test A preemergence", "type": "in vivo, Amaranthus retroflexus", "how_it_was_run": "as §1"}, "[3]": {"test_system": "giant foxtail", "assay": "Test A postemergence", "type": "in vivo, Setaria faberii", "settings": "0 to 100 scale where 0 is no effect and 100 is complete control", "how_it_was_run": "as §1"}, "[4]": {"test_system": "pigweed", "assay": "Test A postemergence", "type": "in vivo, Amaranthus retroflexus", "settings": "0 to 100 scale where 0 is no effect and 100 is complete control", "how_it_was_run": "as §1"}, "[5]": {"test_system": "corn", "assay": "Test A postemergence", "type": "in vivo, Zea mays", "how_it_was_run": "as §1"}, "[6]": {"test_system": "large (Lg) crabgrass", "assay": "Test C preemergence", "type": "in vivo, Digitaria sanguinalis", "settings": "for Crabgrass, Large plant response rating: preemergence", "how_it_was_run": "(§2)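 Plants were kept under greenhouse conditions for 13–15 days following spray. Pre-emergent application went to soil (loam–sand), post-emergent to foliage at 1–4 leaves. Evaluation: visual, percent control against untreated checks.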"}, "[7]": {"test_system": "johnsongrass", "assay": "Test C preemergence", "type": "in vivo, Sorghum halepense", "settings": "for Johnsongrass plant response rating: preemergence", "how_it_was_run": "as §2"}, "[8]": {"test_system": "lambsquarters", "assay": "Test C preemergence", "type": "in vivo, Chenopodium album", "settings": "for Lambsquarters plant response rating: preemergence", "how_it_was_run": "as §2"}, "[9]": {"test_system": "ragweed", "assay": "Test C preemergence", "type": "in vivo, Ambrosia elatior", "settings": "for Ragweed plant response rating: preemergence", "how_it_was_run": "as §2"}, "[10]": {"test_system": "galium", "assay": "Test C postemergence", "type": "in vivo, Galium aparine", "settings": "for Plant response rating, Galium: Postemergence", "how_it_was_run": "as §2"}, "[11]": {"test_system": "corn", "assay": "Test C postemergence", "type": "in vivo, Zea mays", "settings": "for Plant response rating, Corn: Postemergence", "how_it_was_run": "as §2"}, "[12]": {"test_system": "giant foxtail", "assay": "Test C postemergence", "type": "in vivo, Setaria faberii", "settings": "for Plant response rating, Foxtail, Giant: Postemergence", "how_it_was_run": "as §2"}, "[13]": {"test_system": "johnsongrass", "assay": "Test C postemergence", "type": "in vivo, Sorghum halepense", "settings": "for Plant response rating, Johnsongrass: Postemergence", "how_it_was_run": "as §2"}, "[14]": {"test_system": "kochia", "assay": "Test C postemergence", "type": "in vivo, Kochia scoparia", "settings": "for Plant response rating, Kochia: Postemergence", "how_it_was_run": "as §2"}, "[15]": {"test_system": "chickweed", "assay": "Test C postemergence", "type": "in vivo, Stellaria media", "settings": "for Plant response rating, Chickweed: Postemergence", "how_it_was_run": "as §2"}, "[16]": {"settings": "125 g ai/ha, 0 to 100 scale where 0 is no effect and 100 is complete control"}, "[17]": {"settings": "500 g ai/ha, 0 to 100 scale, 0 no effect, 100 complete control, approx. 10 days"}, "[18]": {"settings": "16 g ai/ha, scale 0 to 100 (0 no effect, 100 complete control)"}, "[19]": {"settings": "62 g ai/ha, scale 0 (no effect) to 100 (complete control)"}, "[20]": {"settings": "125 g ai/ha, scale 0 (no effect) to 100 (complete control)"}, "[21]": {"settings": "Preemergence, 31 g ai/ha, scale 0 to 100, 0 no effect, 100 complete control"}, "[22]": {"settings": "16 g ai/ha, postemergence, visual rating, scale 0 to 100 (0 no effect, 100 complete control), 13 to 15 days"}, "[23]": {"settings": "31 g ai/ha, scale 0 to 100 (0 no effect, 100 complete control), 13 to 15 days"}, "[24]": {"settings": "62 g ai/ha, scale 0 to 100 (0 no effect, 100 complete control)"}}, "data": [{"smiles": "FCc1cccc(Oc2ncc(Cl)cn2)c1-n1cc(Br)cn1", "note": "[Compound 83]", "values": [{"measurement": "Plant response rating, Barnyardgrass", "setting": "[1]; [16]", "result": 60}, {"measurement": "Barnyardgrass plant response rating", "setting": "[1]; [17]", "result": 90}, {"measurement": "Plant response rating, Pigweed", "setting": "[2]; [16]", "result": 100}, {"measurement": "Pigweed plant response rating", "setting": "[2]; [17]", "result": 100}, {"measurement": "Plant response rating, Foxtail, Giant", "setting": "[3]; 125 g ai/ha", "result": 90}, {"measurement": "Plant response rating, Foxtail, Giant", "setting": "[3]; 500 g ai/ha", "result": 100}, {"measurement": "Plant response rating, Pigweed", "setting": "[4]; 125 g ai/ha", "result": 100}, {"measurement": "Plant response rating, Pigweed", "setting": "[4]; 500 g ai/ha", "result": 100}, {"measurement": "Plant response rating, Corn", "setting": "[5]; [16]", "result": 40}, {"measurement": "Plant response rating, Corn", "setting": "[5]; 500 g ai/ha, 0 to 100 scale, 0 no effect, 100 complete control", "result": 60}, {"measurement": "Crabgrass, Large plant response rating", "setting": "[6]; [18]", "result": 65}, {"measurement": "Crabgrass, Large plant response rating", "setting": "[6]; [19]", "result": 100}, {"measurement": "Crabgrass, Large plant response rating", "setting": "[6]; [20]", "result": 100}, {"measurement": "Plant response rating, Crabgrass, Large", "setting": "[6]; [21]", "result": 85}, {"measurement": "Johnsongrass plant response rating", "setting": "[7]; [18]", "result": 0}, {"measurement": "Johnsongrass plant response rating", "setting": "[7]; [19]", "result": 50}, {"measurement": "Johnsongrass plant response rating", "setting": "[7]; [20]", "result": 85}, {"measurement": "Plant response rating, Johnsongrass", "setting": "[7]; [21]", "result": 0}, {"measurement": "Lambsquarters plant response rating", "setting": "[8]; [18]", "result": 100}, {"measurement": "Lambsquarters plant response rating", "setting": "[8]; [19]", "result": 100}, {"measurement": "Lambsquarters plant response rating", "setting": "[8]; [20]", "result": 100}, {"measurement": "Plant response rating, Lambsquarters", "setting": "[8]; [21]", "result": 100}, {"measurement": "Ragweed plant response rating", "setting": "[9]; [18]", "result": 0}, {"measurement": "Ragweed plant response rating", "setting": "[9]; [19]", "result": 40}, {"measurement": "Ragweed plant response rating", "setting": "[9]; [20]", "result": 45}, {"measurement": "Plant response rating, Ragweed", "setting": "[9]; [21]", "result": 35}, {"measurement": "Galium plant response rating", "setting": "[10]; [22]", "result": 50}, {"measurement": "Plant response rating (0 to 100), Galium", "setting": "[10]; 125 g ai/ha, postemergence", "result": 60}, {"measurement": "Plant response rating, Galium", "setting": "[10]; [23]", "result": 65}, {"measurement": "Plant response rating, Galium", "setting": "[10]; [24]", "result": 70}, {"measurement": "Corn plant response rating", "setting": "[11]; [22]", "result": 0}, {"measurement": "Plant response rating (0 to 100), Corn", "setting": "[11]; 125 g ai/ha, postemergence", "result": 10}, {"measurement": "Plant response rating, Corn", "setting": "[11]; [23]", "result": 5}, {"measurement": "Plant response rating, Corn", "setting": "[11]; [24]", "result": 5}, {"measurement": "Foxtail, Giant plant response rating", "setting": "[12]; [22]", "result": 35}, {"measurement": "Plant response rating (0 to 100), Foxtail, Giant", "setting": "[12]; 125 g ai/ha, postemergence", "result": 40}, {"measurement": "Plant response rating, Foxtail, Giant", "setting": "[12]; [23]", "result": 35}, {"measurement": "Plant response rating, Foxtail, Giant", "setting": "[12]; [24]", "result": 10}, {"measurement": "Johnsongrass plant response rating", "setting": "[13]; [22]", "result": 0}, {"measurement": "Plant response rating (0 to 100), Johnsongrass", "setting": "[13]; 125 g ai/ha, postemergence", "result": 10}, {"measurement": "Plant response rating, Johnsongrass", "setting": "[13]; [23]", "result": 0}, {"measurement": "Plant response rating, Johnsongrass", "setting": "[13]; [24]", "result": 10}, {"measurement": "Kochia plant response rating", "setting": "[14]; [22]", "result": 60}, {"measurement": "Plant response rating (0 to 100), Kochia", "setting": "[14]; 125 g ai/ha, postemergence", "result": 95}, {"measurement": "Plant response rating, Kochia", "setting": "[14]; [23]", "result": 70}, {"measurement": "Plant response rating, Kochia", "setting": "[14]; [24]", "result": 90}, {"measurement": "Chickweed plant response rating", "setting": "[15]; [22]", "result": 35}, {"measurement": "Plant response rating (0 to 100), Chickweed", "setting": "[15]; 125 g ai/ha, postemergence", "result": 70}, {"measurement": "Plant response rating, Chickweed", "setting": "[15]; [23]", "result": 40}, {"measurement": "Plant response rating, Chickweed", "setting": "[15]; [24]", "result": 60}]}]}
